Literature values, collected in patent US10393636B2 (priority 2017, dated 2019).

**Q.** Which “Log P” value does the source give for CN[C@H]1CC[C@@H](c2ccc(Cl)c(Cl)c2)c2ccccc21 [Sertraline] here?
**A.** 5.06
